Measured values reported in patent US5994361A, “Substituted purinyl derivatives with immunomodulating activity” (priority 1995, dated 1999).
“Also recorded” adds a separate entry of the source.

Tests used:
[1] = tested on: Fisher male and female rats; assay: In vivo toxicity, repeated intravenous injections (Example 96)
Method: The objective of this study was to find the toxic dose of compound #1 after repeated intravenous injections in Fisher male and female rats.
Groups of 3 male rats, and 3 female rats were injected daily i.v. for 5 consecutive days. A first group received 500 mg/kg, a second group 250 mg/kg, and a third group 125 mg/kg. In addition, one male and one female were injected with 1000 mg/kg. An untreated group (male and female) was included in the experiment. For all doses a constant volume of […] was used. Injections were started on day 0 and continued until day 4 (5 days). […] On day 8, the rats were euthanatized and a macroscopic examination of the internal organs was performed.

[2] = Body weight, compound #1 with Cytoxan 28 mg/kg (Example 94); type: in vivo, Balb/c mice; set-up: body weight: unit not given here
Method: In another experiment, the CTX treatment was prolonged. Balb/c mice were injected s.c. with 5×10^5 DA-3 tumor cells at day 0. At day 4 when established tumors appeared, tumor-bearing animals were randomized (n=11/gr.) and injected with CTX (at 28 mg/kg) i.v. bolus injections at days 4, 11, and 18. […]

[3] = 250 mg/kg and 125 mg/kg i.v., 5 days

With CN(C)c1ncnc2c1ncn2CCCCCOC(=O)N[C@H](CCCNC(=N)N)C(=O)O [Compound #1, N,N-Dimethylaminopurinyl Pentoxycarbonyl D-Arginine] the abnormal signs [1, 3] was “no abnormal signs”, the growth curves [1, 3] was “normal” and the changes on necropsy ([1]; 250 mg/kg and 125 mg/kg i.v., day 8) was “No drug induced changes”. The signs of toxicity ([1]; 250 mg/kg i.v., 5 consecutive days) was “no signs of toxicity”, the growth curves ([1]; 500 mg/kg i.v., 5 days) was “not affected when compared to controls” and the “lethality or effects on growth” value ([1]; 500 mg/kg i.v., 5 days) was “no lethality of effects on the growth of the animals”. The “signs of drug effect” value ([1]; 500 mg/kg i.v., 5 days) was “twitches of the torso area, tremors of the forepaws and jumping episods; also recorded: some short lasting abnormal signs”, the duration of signs ([1]; 500 mg/kg i.v., after each of five injections) was “less than 1 hour” and the lethality ([1]; 1000 mg/kg i.v.) was “lethal”. For the same molecule, the “signs of drug effect” value ([1]; 1000 mg/kg i.v.) was “severe colonic convulsions”, the time to death ([1]; 1000 mg/kg i.v., 1 male and 1 female, both died) was at most 10 min and the tolerability ([1]; i.v. in Fisher rats) was “well tolerated”. For the same molecule, the “tolerability (conclusion)” value ([1]; rat, in vivo) was “appear to be well tolerated”, the body weight ([2]; BCH-1393 50 mg/kg + CTX 28 mg/kg, day 7) was 18.2 and the body weight ([2]; BCH-1393 50 mg/kg + CTX 28 mg/kg, day 9) was 19.1. The body weight ([2]; BCH-1393 50 mg/kg + CTX 28 mg/kg, day 11) was 19.0, the body weight ([2]; BCH-1393 50 mg/kg + CTX 28 mg/kg, day 14) was 18.6 and the body weight ([2]; BCH-1393 50 mg/kg + CTX 28 mg/kg, day 16) was 19.5. For the same molecule, the body weight ([2]; BCH-1393 50 mg/kg + CTX 28 mg/kg, day 18) was 19.3, the body weight ([2]; BCH-1393 50 mg/kg + CTX 28 mg/kg, day 21) was 18.9 and the body weight ([2]; BCH-1393 50 mg/kg + CTX 28 mg/kg, day 23) was 18.8. The body weight ([2]; BCH-1393 50 mg/kg + CTX 28 mg/kg, day 25) was 19.5, the body weight ([2]; BCH-1393 50 mg/kg + CTX 28 mg/kg, day 28) was 19.4 and the body weight ([2]; BCH-1393 50 mg/kg + CTX 28 mg/kg, day 30) was 19.3. The body weight ([2]; BCH-1393 50 mg/kg Ip (Days 3-28) + CTX 28 mg/kg Iv (days 4, 11, 18), day 4) was 18.7, the body weight loss ([2]; compound #1 50 mg/kg + CTX 28 mg/kg) was “No significant body weight loss” and the body weight ([2]; single agent (CTX 28 mg/kg days 4, 11, 18, or BCH-1393 50 mg/kg days 3-28), day 4) was 18.6. The body weight ([2]; single agent (CTX 28 mg/kg or BCH-1393 50 mg/kg), day 7) was 19.1, the body weight ([2]; single agent (CTX 28 mg/kg or BCH-1393 50 mg/kg), day 9) was 19.3 and the body weight ([2]; single agent (CTX 28 mg/kg or BCH-1393 50 mg/kg), day 11) was 18.9. For the same molecule, the body weight ([2]; single agent (CTX 28 mg/kg or BCH-1393 50 mg/kg), day 14) was 18.9, the body weight ([2]; single agent (CTX 28 mg/kg or BCH-1393 50 mg/kg), day 16) was 19.5 and the body weight ([2]; single agent (CTX 28 mg/kg or BCH-1393 50 mg/kg), day 18) was 18.9. The body weight ([2]; single agent (CTX 28 mg/kg or BCH-1393 50 mg/kg), day 21) was 19.3, the body weight ([2]; single agent (CTX 28 mg/kg or BCH-1393 50 mg/kg), day 23) was 19.3 and the body weight ([2]; single agent (CTX 28 mg/kg or BCH-1393 50 mg/kg), day 25) was 19.5. The body weight ([2]; single agent (CTX 28 mg/kg or BCH-1393 50 mg/kg), day 28) was 19.7 and the body weight ([2]; single agent (CTX 28 mg/kg or BCH-1393 50 mg/kg), day 30) was 20.0.
